Consider twelve molecules from paper PMC5196235 (International Journal for Parasitology: Drugs and Drug …, 2016).

Where a name gives a salt, the structure may show the parent alone.

Assay [1] deals with T1, Asu-ACR-16 receptor (Ascaris suum, UniProt F1KYJ9).
T1 sequence (F1KYJ9 1-504): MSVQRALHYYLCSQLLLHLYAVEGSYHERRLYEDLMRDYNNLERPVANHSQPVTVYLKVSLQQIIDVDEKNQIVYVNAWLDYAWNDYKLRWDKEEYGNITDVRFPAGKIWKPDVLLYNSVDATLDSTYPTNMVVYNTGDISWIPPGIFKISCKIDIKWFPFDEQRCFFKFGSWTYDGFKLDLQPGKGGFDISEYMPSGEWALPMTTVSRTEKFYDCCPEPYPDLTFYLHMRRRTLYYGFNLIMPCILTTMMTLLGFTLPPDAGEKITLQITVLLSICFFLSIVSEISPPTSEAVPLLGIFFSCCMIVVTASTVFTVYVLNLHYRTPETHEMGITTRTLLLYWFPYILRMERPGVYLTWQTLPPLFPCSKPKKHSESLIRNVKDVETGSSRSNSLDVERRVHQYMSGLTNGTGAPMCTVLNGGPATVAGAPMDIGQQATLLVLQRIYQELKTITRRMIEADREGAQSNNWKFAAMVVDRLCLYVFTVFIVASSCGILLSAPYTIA
The assay is described as follows: Two-electrode voltage clamp of Asu-ACR-16 expressed in Xenopus oocytes. The format is cell-based. The following applies: for effect at high concentration (response left out of the Hill fit): 30 μM 5-methylnicotine, 100 μM 6-methylnicotine, 300 μM homonicotine, 100 μM (S, R)-anabasine; for Hill slope (nH): Asu-ACR-16 in Xenopus oocytes, Hill equation fit, mean ± S.E.M., N = 5; for Emax: read-out: maximum response (Imax). On the technique in general: In two-electrode clamp one electrode senses voltage and the other passes current.

Assay [2] concerns the target T1, Asu-ACR-16 receptor. Conditions: ref Abongwa et al., 2016; cited from earlier work.

In the case of `Cc1cncc(C2CCCN2C)c1` (racemic) [5-methylnicotine, rac-5-methylnicotine], in assay [1], the “effect at high concentration (response left out of the Hill fit)” value was “inhibitory effects at high concentrations” and the “Hill slope (nH)” value was determined as 2.09 ± 0.14. `O=c1c(Br)ccc2n1C[C@@H]1CNC[C@H]2C1` [3-bromocytisine]: the “sensitivity of the Asu-ACR-16 receptor to the agonist” value (“sensitivity” for short) in assay [2] is reported as “sensitive”. For `CN1CCCC1c1ccc(N)nc1.Cl.Cl` (stereo not drawn) [6-AN, 5-(1-methyl-pyrrolidin-2-yl)-pyridin-2-ylamine dihydrochloride], in assay [1], the “Hill slope (nH)” value turned out to be 10.10 ± 0.15 and the Emax came out at 6.29 ± 0.62%. The “agonist activity on Asu-ACR-16 (inward current)” value in assay [1] (derivatives that elicited inward currents at 100 μM were classed as agonists) is listed as “little agonist activity”. On to `CN1CCC[C@H]1c1cncc(Br)c1` [(S)-5-bromonicotine], for which the “Hill slope (nH)” value in assay [1] came out at 2.46 ± 0.21. Turning to `CN1CCC[C@H]1c1cccnc1` [(S)-nicotine, (−)-nicotine hydrogen tartrate salt], the “Hill slope (nH)” value in assay [1] is reported as 3.39 ± 0.36. Further, in assay [2], the “sensitivity” value was “sensitive”. With `C#Cc1cncc([C@@H]2CCCN2C)c1` [(S)—SIB 1508Y], in assay [1], the “Hill slope (nH)” value was determined as 0.94 ± 0.04 and the Emax worked out at 100 ± 4.36%. With `CC(=O)OCC[N+](C)(C)C` [ACh, acetylcholine], the “Hill slope (nH)” value in assay [1] is on record as 2.93 ± 0.13. Besides, the “sensitivity” value in assay [2] was “sensitive”.

For `C[N+]1(C)CCN(c2ccccc2)CC1.[I-]` [DMPP, dimethyl-4-phenyllpiperazinium iodide], the “sensitivity” value in assay [2] is “sensitive”.

Take `O=c1cccc2n1C[C@@H]1CNC[C@H]2C1` [cytisine]: the “sensitivity” value in assay [2] is given as “sensitive”. As to `Clc1ccc(C2CC3CCC2N3)cn1` (stereo not drawn) [epibatidine], the “sensitivity” value in assay [2] is “sensitive”. As to (±)-nornicotine, the “Hill slope (nH)” value in assay [1] was determined as 3.25 ± 0.49. For the molecule anabasine [(S, R)-anabasine], the “effect at high concentration (response left out of the Hill fit)” value in assay [1] is reported as “inhibitory effect”.
